Laboratory results taken from article PMC7411736, “Effects of Sesamin, the Major Furofuran Lignan of Sesame Oil, on the Amplitude and Gating of Voltage-Gated Na^+ and K^+ Currents” (Molecules, 2020).
pIC50, pKd: −log10 of the molar value. Read-outs that look alike come from different tables or passages of the source.

System: voltage-gated Na+ currents (INa) in pituitary GH3 cells
Test: Whole-cell patch-clamp of voltage-gated Na+ current evoked by depolarization from −80 to −10 mV
Assay type: cell-based, rat
Details: for pIC50: GH3 cells, depolarization −80 to −10 mV
Method: In an initial step of the experiments, we examined the effects of SSM on the amplitude and gating of INa in response to rapid membrane depolarization. Cells were bathed in Ca^2+-free Tyrode’s solution containing 10 mM tetraethylammonium chloride (TEA) and the recording pipette was backfilled with a Cs^+-containing solution. […] For example, when rapid membrane depolarization from −80 to −10 mV with a duration of 40 msec was delivered (indicated in the inset of Figure 1A) to evoke INa, the addition of 3 μM SSM caused a decrease in the peak or sustained amplitude of INa to 139 ± 11 pA (n = 11, P < 0.05) or 12 ± 3 pA (n = 11, P < 0.05), respectively, from the control values of 248 ± 18 or 21 ± 2 pA (n = 11). After the removal of SSM, the peak and sustained amplitude returned to 232 ± 16 or 19 ± 2 pA (n = 7, P < 0.05).
The bath solution (i.e., a HEPES-buffered normal Tyrode’s solution) utilized in the present study was composed of 136 mM NaCl, 5.4 mM KCl, 1.8 mM CaCl2, 0.53 mM MgCl2, 5.5 mM glucose, and 5.5 mM HEPES titrated with NaOH to pH 7.4. To measure macroscopic IK(DR) and Ih, we filled patch pipettes by using a solution containing 130 mM K-aspartate, 20 mM KCl, 1 mM KH2PO4, 1 mM MgCl2, 3 mM Na2ATP, 0.1 mM Na2GTP, 0.1 mM EGTA, and 5 mM HEPES adjusted with KOH to pH 7.2. To record INa and INa(R), we substituted K^+ ions in the pipette solution inside the electrode for equmolar Cs^+ ions and the pH value in the solution was adjusted to 7.2 with CsOH. To measure IK(erg) and IK(M), cells were bathed in a high-K^+ solution containing 145 mM KCl, 0.53 mM MgCl2, and 5 mM HEPES-KOH buffer, pH 7.4. All solutions were prepared using deionized water from a Millipore Milli-Q purification system (ρ = 18 MΩ·cm) (Merck, Ltd., Taipei, Taiwan). The pipette solution and culture medium were filtered on the day of use with a sterile Acrodisc® syringe filter with a 0.2-μm Supor® membrane (Bio-Check; New Taipei City, Taiwan).
The pituitary adenomatous cell line, GH3, was acquired from the Bioresource Collection and Research Center ((BCRC-60015, https://catalog.bcrc.firdi.org.tw/BcrcContent?bid=60015); Hsinchu, Taiwan). Cells were maintained in Ham’s F-12 medium supplemented with 2.5% fetal bovine serum (v/v), 15% horse serum (v/v), and 2 mM L-glutamine in a humidified environment of 5% CO2/95% air. When well differentiated, GH3 cells were transferred to a serum- and Ca^2+-free medium. Electrical recordings were performed 5 or 6 days after cells were cultured with 60–80% confluence.
On the day of each experiment, cells were dispersed with a 1% trypsin/EDTA solution and a few drops of cell suspension were rapidly placed in a custom-built recording chamber mounted on the stage of an inverted DM-IL microscope (Leica; Major Instruments, Kaohsiung, Taiwan). They were immersed at room temperature (20–25 °C) in normal Tyrode’s solution, the composition of which is elaborated above. We measured ion currents in the whole-cell model of a standard patch-clamp technique with dynamic adaptive suctioning (i.e., decremental change of suction pressure in response to a progressive increase in the electrode resistance), with the aid of an RK-400 (Bio-Logic, Claix, France) or an Axopatch-200B (Molecular Devices, Sunnyvale, CA) patch amplifier. The microelectrodes used were prepared from Kimax-51 borosilicate capillaries with a 1.5-mm outer diameter (#34500; Kimble; Dogger, New Taipei City, Taiwan) by using a PP-830 vertical puller (Narishige, Taiwan Instrument, Taipei, Taiwan). The recording electrodes had their tip resistances, which ranged between 3 and 5 MΩ, as they were filled up with the different internal solutions elaborated above. During the measurements, the recorded area on the vibration-free table was shielded by using a Faraday cage (Scitech, Seoul, South Korea). […]

c1cc2c(cc1[C@H]1OC[C@H]3[C@@H]1CO[C@@H]3c1ccc3c(c1)OCO3)OCO2 [SSM, [1S-(1α,3aα,4α,6aα)] -5,5’- (tetrahydro-1H,3H-furo [3–4-c]furan-1,4-diyl)bis-1,3-benzodioxole]
Effect on peak amplitude of INa (3 μM, −80 to −10 mV (Figure 2)): produced inhibitory effects
Sustained amplitude of INa (3 μM, −80 to −10 mV, 40 msec, control 21 ± 2 pA, n = 11): 12 ± 3 pA
Peak amplitude of INa (3 μM, −80 to −10 mV, 40 msec, control 248 ± 18 pA, n = 11): 139 ± 11 pA
Effect on peak component of INa (0.1 to 0.3 μM): little or no effect
Effect on sustained component of INa (0.1 to 0.3 μM): effectively blocked
pIC50 (amplitude at beginning of pulse, read-out: IC50 for decrease of peak INa): 5.14
pIC50 (amplitude at end of pulse, read-out: IC50 for decrease of sustained INa): 6.22
pKd (first-order reaction scheme, open-state block, read-out: Dissociation constant (KD = k−1/k+1*) of INa block): 6.03
Unblocking (backward) rate constant k−1 of INa block (from intercept of 1/τinact(S) versus [SSM]): 0.0415 msec^−1
Blocking (forward) rate constant k+1* of INa block (from slope of 1/τinact(S) versus [SSM]): 0.0449 msec^−1μM^−1
Peak amplitude of INa after removal of compound (washout after 3 μM, n = 7): 232 ± 16 pA
Sustained amplitude of INa after removal of compound (washout after 3 μM, n = 7): 19 ± 2 pA
